Measurements taken from ChEMBL document CHEMBL1143708, “5-alkynyl analogs of arabinouridine and 2'-deoxyuridine: cytostatic activity against herpes simplex virus and varicella-zoster thymidine kinase gene-transfected cells” (J Med Chem, 2007).
Converted amounts (≈) assume the structure as drawn.

Test system: Vaccinia virus
Assay: Antiviral activity against Vaccinia virus in E6SM cells assessed as reduction of virus-induced cytopathogenicity
Assay type: functional, organism-based
Conditions: Orthopoxvirus vaccinia

Compound | EC50
CC(=O)OC[C@H]1O[C@@H](n2cc(C#CI)c(=O)[nH]c2=O)[C@@H](OC(C)=O)[C@@H]1OC(C)=O | > 10 µg/mL
C[Si](C)(C)C#Cc1cn([C@@H]2O[C@H](CO)[C@@H](O)[C@@H]2O)c(=O)[nH]c1=O | 7 µg/mL (≈ 20.6 µM)
O=c1[nH]c(=O)n([C@H]2C[C@H](O)[C@@H](CO)O2)cc1C#CI | 0.2 µg/mL (≈ 0.529 µM)
C#Cc1cn([C@H]2C[C@H](O)[C@@H](CO)O2)c(=O)[nH]c1=O | 0.1 µg/mL (≈ 0.396 µM)
O=c1[nH]c(=O)n([C@H]2C[C@H](O)[C@@H](CO)O2)cc1/C=C/Br [BRIVUDINE] | 0.2 µg/mL (≈ 0.6 µM)
Nc1nc2c(ncn2COC(CO)CO)c(=O)[nH]1 [GANCICLOVIR] | > 100 µg/mL
NC(=O)c1ncn([C@@H]2O[C@H](CO)[C@@H](O)[C@H]2O)n1 [RIBAVIRIN] | 20 µg/mL (≈ 81.9 µM)
Nc1nc2c(ncn2COCCO)c(=O)[nH]1 [ACYCLOVIR] | > 400 µg/mL
C[Si](C)(C)C#Cc1cn([C@H]2C[C@H](O)[C@@H](CO)O2)c(=O)[nH]c1=O | 0.2 µg/mL (≈ 0.617 µM)
